Here are results for one sequence from PMC7725785, “TRIB3 promotes MYC-associated lymphoma development through suppression of UBE3B-mediated MYC degradation” (Nature Communications, 2020).

Assay [1] deals with Myc^Eμ BCL mice. Put plainly: Kaplan-Meier survival of Myc^Eμ BCL mice treated with DOX and peptide. The assay is classed as in vivo, mouse. The note with it: DOX 2 mg/kg i.p. once a week and PCM4 5 mg/kg i.v. three times a week, 3 months, result in words. How it is done: (§1) To evaluate the survival rate, these mice were monitored for 8 months (Myc^Eμ mice). […] During the indicated treatments, tumor burden was evaluated by measuring the tumor volume to determine the therapeutic efficacy in the PDX models.

Assay [2] concerns lymphoma and leukemia cells. Briefly: Cell viability (CCK-8) of lymphoma and leukemia cells with PCM4. The conditions noted are these: result in words. The assay is classed as cell-based, human.
Assay [3] has as its system MYC transcriptional activity. Briefly: E-box luciferase reporter assay of MYC transcriptional activity in Raji cells. The format is cell-based, human. The note with it: 24 h after transfection, versus PCON, result in words. Here is the method: Cells were seeded in 12-well plates and transfected with E-box-dependent luciferase reporters (Yeasen Inc.) using VigoFect (Vigorous Biotechnology Beijing, China). pTK-Renilla was used as an internal control. Luciferase activity was measured 20–24 h after transfection using the Dual-luciferase Reporter Assay System (Promega, USA).
In general terms: A reporter such as luciferase makes a cellular process visible.

Assay [4] concerns DLBCL^T156 PDX. Put plainly: PDX model tumor growth and weight, DLBCL T156. The assay is classed as in vivo, human. The conditions noted are these: result in words. Here is the method: Four 5-week-old male NSG mice were implanted subcutaneously with 200 μl of a 1:1 mixture of Matrigel® Basement Membrane Matrix High Concentration (Corning, 354230) and minced fresh tumor fragments resected from lymphoma patients. Approximately 3–4 weeks following implantation, the first-generation mice (G1) were killed, and tumor masses were isolated. The tumor cells were tested for human CD19 (BCL) or CD3 expression (T cell lymphoma), and the remaining tumor mass was cut into 3-mm^3 sections and passaged into 4–5 NSG mice as the second generation (G2). After stable passage of the third generation (G3), the tumor mass of the fourth generation (G4) was equally cut into 3-mm^3 pieces and then passaged subcutaneously into 30–50 NSG mice (100 μl of a 1:2 mixture of Matrigel and tumor tissue) for in vivo treatment (6–8 mice per group, dependent on the experimental drug treatment). During and after treatment with the vehicle control or the indicated agent, tumor burden was evaluated by measuring the tumor volume to determine the therapeutic efficacy in the PDX models. […]
as §1

Turning to “HLYVSPWGGKRREQLKHKLEQLR [PCM4, fused peptide generated by linking CM4 to a cell-penetrating peptide]”, the “therapeutic efficacy / survival rate in combination with DOX” value in assay [1] was “enhanced the therapeutic efficacy of DOX”. Also, the “proliferation of lymphoma and leukemia cells” value in assay [2] is “inhibited the proliferation of most lymphoma and leukemia cells in a time-dependent manner”. Also, in assay [3], the MYC transcriptional activity entry is “reduced MYC transcriptional activity”. Further, the “growth and weights of tumors, combination of PCM4 and DOX” value in assay [4] (PDX T156 (high TRIB3 and MYC expression), PCM4 5 mg/kg and DOX 2 mg/kg) is “further decreased the growth and weights of tumors”. Moreover, the “tumor growth of PDX” value in assay [4] (PDX T156, NSG mice, PCM4 5 mg/kg i.v. three times a week) was “inhibited the tumor growth”.
